This note sets out measurements from ChEMBL document CHEMBL3271998, “Quantitative structure-activity relationships among steroids. Investigations of the use of steric parameters” (1976).

This experiment concerns Oryctolagus cuniculus. Briefly: Progestational activity in immature rabbit assessed as proliferation of uterus administered intramuscularly by haematoxylin and eosin staining-based assay. The class given is functional.

Take `C=C1C[C@H]2[C@@H]3C=C(OC(C)=O)C4=CC(=O)CC[C@]4(C)[C@H]3CC[C@]2(C)[C@@]1(OC(C)=O)C(C)=O`: the “log(activity)” value was -0.7. Consider `C=C1C[C@H]2[C@@H]3C=C(Cl)C4=CC(=O)CC[C@]4(C)[C@H]3CC[C@]2(C)[C@@]1(OC(C)=O)C(C)=O`, for which the “log(activity)” value is listed as 1.89.

Turning to `C=C1C[C@H]2[C@@H]3C=C(F)C4=CC(=O)CC[C@]4(C)[C@H]3CC[C@]2(C)[C@@]1(OC(C)=O)C(C)=O`, the “log(activity)” value is 1.74. With `C=C1C[C@H]2[C@@H]3C=C(Br)C4=CC(=O)CC[C@]4(C)[C@H]3CC[C@]2(C)[C@@]1(OC(C)=O)C(C)=O`, the “log(activity)” value is 1.62. `C=C1C[C@H]2[C@@H]3C=C(N=[N+]=[N-])C4=CC(=O)CC[C@]4(C)[C@H]3CC[C@]2(C)[C@@]1(OC(C)=O)C(C)=O`: the “log(activity)” value was determined as 1.3. As to `C=C1C[C@H]2[C@@H]3C=C(OC)C4=CC(=O)CC[C@]4(C)[C@H]3CC[C@]2(C)[C@@]1(OC(C)=O)C(C)=O`, the “log(activity)” value is 1.15. `C=C1C[C@H]2[C@@H]3C=C(SC#N)C4=CC(=O)CC[C@]4(C)[C@H]3CC[C@]2(C)[C@@]1(OC(C)=O)C(C)=O`: the “log(activity)” value turned out to be 1.08. For the molecule `C=C1C[C@H]2[C@@H]3C=C(C(F)(F)F)C4=CC(=O)CC[C@]4(C)[C@H]3CC[C@]2(C)[C@@]1(OC(C)=O)C(C)=O`, the “log(activity)” value is on record as 1.04. To `C=C1C[C@H]2[C@@H]3C=C(C#N)C4=CC(=O)CC[C@]4(C)[C@H]3CC[C@]2(C)[C@@]1(OC(C)=O)C(C)=O` belongs 0.78; to `C=C1C[C@H]2[C@@H]3C=C(OCC)C4=CC(=O)CC[C@]4(C)[C@H]3CC[C@]2(C)[C@@]1(OC(C)=O)C(C)=O`, 0; to `C=C1C[C@H]2[C@@H]3C=CC4=CC(=O)CC[C@]4(C)[C@H]3CC[C@]2(C)[C@@]1(OC(C)=O)C(C)=O`, 0. To `C=C1C[C@H]2[C@@H]3C=C(C=O)C4=CC(=O)CC[C@]4(C)[C@H]3CC[C@]2(C)[C@@]1(OC(C)=O)C(C)=O` belongs 0. Under `C=C1C[C@H]2[C@@H]3C=C(NC(C)=O)C4=CC(=O)CC[C@]4(C)[C@H]3CC[C@]2(C)[C@@]1(OC(C)=O)C(C)=O` stands -1; under `C=C1C[C@H]2[C@@H]3C=C(C)C4=CC(=O)CC[C@]4(C)[C@H]3CC[C@]2(C)[C@@]1(OC(C)=O)C(C)=O` [MELENGESTROL ACETATE], 1.96.
